“Also recorded” adds a separate entry of the source. Where two headings read alike, the source gives them in different places. Peptide text beside a SMILES is read from it.

The subject of test [1] is primary rat adipocyte cultures. It is filed as cell-based. Here is the method: Adipocytes were isolated from epididymal fat dissected from normal young adult Sprague-Dawley rats. The fat lumps were minced, incubated and shaken (220 rpm) with collagenase (1 mg/ml) in Krebs-Ringer buffer containing 4% BSA (KRB-BSA) for 60 minutes at 37° C. The suspension was filtered through a nylon filter (160 μm pore size) and the filtrate centrifuged at 200×g for 3 min. The subjacent medium beneath the upper floating layer of adipocytes was removed with a Pasteur-pipette. The adipocytes were washed 3 times in KRB-BSA buffer by re-suspension and centrifugation. The adipocytes were re-suspended in KRB-BSA, mixed, incubated in and shaken with test compounds in 96-deep well plates (50,000 cells/well) in a total volume of 1 ml at 37° C. for 60 min. The plates were placed on ice for at least 10 min after incubation followed by centrifugation at 200×g for 3 min. 300 μl of the buffer beneath the adipocyte layer were collected in a 96-deep well plate. This process was repeated two more times and the 3 extracts collected from each culture pooled together.

Another test has as its system C57BI/6 mice. The test can be described thus: Food intake in normal mice. The class given is in vivo. The conditions noted are these: fasted mice, s.c.; PYY3-36 30 nmol/kg, glucagon 500 nmol/kg, ZP2669 500 nmol/kg. The source says: Differences were considered significant at the p<0.05 level.
In a further test the test system is db/db mice. The test can be described thus: Oral glucose tolerance test (OGTT) in db/db mice. The conditions noted are these: 45 nmol/kg i.p. The class given is in vivo. The procedure:
Db/db mice were fasted overnight and an initial blood sample (fasting blood glucose level) taken just before administration (i.p.) of vehicle (Acetate buffer, 20 mM acetic acid, 250 mM mannitol, pH 5.0) or the test compound ZP2669 (SEQ ID NO: 4) (45 nmol/kg in acetate buffer). The animals were kept fasted during the experiment to prevent confounding food intake. Fifteen minutes later an oral dose of glucose (1 g/kg in 5 ml/kg) was given and BG levels were measured at t=30 min, t=60 min, t=120 min and t=240 min.
Difference from baseline (t=0) was calculated for each time point and AUC0-240 min values were determined. Statistical analyses of AUC values by one-way ANOVA and Dunnetts post-hoc analyses were performed with GraphPad Prism version 4. Differences were considered significant at the p<0.05 level.

The test system of test [2] is diet induced obese (DIO) mice. The test can be described thus: 28 day treatment of DIO mice: plasma cholesterols (cholesterol, HDL, LDL). The class given is in vivo. The conditions noted are these: DIO mice treated 4 weeks b.i.d., compared to vehicle. Here is the method:
Four weeks before drug treatments, C57BI/6 male mice (7 weeks)) (N=10-12 animals in each group) were put on high fat diet (HFD) and their day-night cycle reversed with lights On/Off at 2000/0800 hour. Experimental animals were conditioned to treatment by daily injections (s.c.) of 0.1 ml vehicle and acclimatized to handling by weighing them twice a week one week before start of drug administrations. […] A non-obese control group maintained on regular chow was treated with vehicle in the same treatment regime as the DIO groups. Body weights were recorded daily and used to administer the body weight-corrected doses of peptide throughout the study. Animals were fasted overnight before sacrifice. An eye blood sample (0.6 ml EDTA) was obtained the following morning immediately before cervical dislocation. Blood plasma samples were stored at −80° C. until analyzed for cholesterol, HDL and LDL using commercially available kits. Body weight gains throughout the treatment period were calculated for each animal by subtracting its weight at the initiation of treatment.
The effects of treatment on body weight gain and cholesterols were assessed by 2-way ANOVA with repeated measures and Bonferoni post-hoc analyses, using GraphPad Prism version 4. Differences were considered significant at the p<0.05 level.

Test [3] concerns diet induced obese (DIO) mice. Nature of the test: 28 day treatment of diet induced obese (DIO) mice: body weight gain. The class given is in vivo. The procedure: Four weeks before drug treatments, C57BI/6 male mice (7 weeks)) (N=10-12 animals in each group) were put on high fat diet (HFD) and their day-night cycle reversed with lights On/Off at 2000/0800 hour. Experimental animals were conditioned to treatment by daily injections (s.c.) of 0.1 ml vehicle and acclimatized to handling by weighing them twice a week one week before start of drug administrations. The day before start of experiment, mice were stratified into groups with similar body weight (BW) and the next day groups of stratified mice were treated (b.i.d.; s.c.) with ZP2669 (SEQ ID NO: 4) (500 nmol/kg) or vehicle (Acetate-buffer). ZP2669 (SEQ ID NO: 4) was given in isotonic acetate buffer (pH 4.8; 2.5 μl/g BW). […] Body weights were recorded daily and used to administer the body weight-corrected doses of peptide throughout the study. […] Blood plasma samples were stored at −80° C. until analyzed for cholesterol, HDL and LDL using commercially available kits. Body weight gains throughout the treatment period were calculated for each animal by subtracting its weight at the initiation of treatment.
The effects of treatment on body weight gain and cholesterols were assessed by 2-way ANOVA with repeated measures and Bonferoni post-hoc analyses, using GraphPad Prism version 4. […]

In a further test the target is T1, human GLP-1-R (Homo sapiens, UniProt P43220).
T1 construct: expressed in transfected cells
T1 sequence (P43220 24-463): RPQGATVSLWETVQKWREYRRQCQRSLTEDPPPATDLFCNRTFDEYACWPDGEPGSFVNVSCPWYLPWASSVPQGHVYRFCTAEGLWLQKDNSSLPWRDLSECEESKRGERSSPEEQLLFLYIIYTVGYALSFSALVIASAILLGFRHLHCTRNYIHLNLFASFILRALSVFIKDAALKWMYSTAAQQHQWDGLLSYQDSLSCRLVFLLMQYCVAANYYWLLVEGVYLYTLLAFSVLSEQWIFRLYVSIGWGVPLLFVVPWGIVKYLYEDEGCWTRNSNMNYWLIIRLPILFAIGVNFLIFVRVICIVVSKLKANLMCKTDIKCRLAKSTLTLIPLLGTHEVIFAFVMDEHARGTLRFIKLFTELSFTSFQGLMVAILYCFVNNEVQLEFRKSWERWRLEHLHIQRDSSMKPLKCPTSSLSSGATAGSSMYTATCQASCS
Nature of the test: GLP-1-receptor efficacy assay (cAMP in HEK293 cells). It is filed as cell-based. The procedure:
The 5′-end primers additionally encoded a near Kozak consensus sequence to ensure efficient translation.
48 hr after transfection cells were seeded for limited dilution cloning and selected with 1 mg/ml G418 in the culture medium.
On the day of analysis, growth medium was removed and the cells washed once with 200 μl Tyrode buffer. Cells were incubated in 100 μl Tyrode buffer containing increasing concentrations of test peptides, 100 μM IBMX, and 6 mM glucose for 15 min at 37° C. The reaction was stopped by addition of 25 μl 0.5 M HCl and incubated on ice for 60 min. The cAMP content was estimated using the FlashPlate® cAMP kit from Perkin-Elmer.

`CC(C)C[C@H](NC(=O)[C@H](CC(C)C)NC(=O)[C@H](Cc1c[nH]c2ccccc12)NC(=O)[C@H](CCC(=O)O)NC(=O)[C@@H](NC(=O)[C@H](Cc1ccccc1)NC(=O)[C@H](CC(=O)O)NC(=O)[C@H](Cc1c[nH]cn1)NC(=O)[C@H](C)NC(=O)[C@H](C)NC(=O)[C@H](CCCCN)NC(=O)[C@H](CO)NC(=O)[C@H](CC(=O)O)NC(=O)[C@H](CC(C)C)NC(=O)[C@H](Cc1ccc(O)cc1)NC(=O)[C@H](CCCCN)NC(=O)[C@H](CO)NC(=O)[C@H](Cc1ccc(O)cc1)NC(=O)[C@H](CC(=O)O)NC(=O)[C@H](CO)NC(=O)[C@@H](NC(=O)[C@H](Cc1ccccc1)NC(=O)[C@@H](NC(=O)CNC(=O)[C@H](CCC(N)=O)NC(=O)[C@H](CO)NC(=O)[C@@H](N)Cc1c[nH]cn1)[C@@H](C)O)[C@@H](C)O)C(C)C)C(=O)N[C@@H](CCCNC(=N)N)C(=O)N[C@@H](C)C(N)=O` [ZP2669] (H-HSQGTFTSDYSKYLDSKAAHDFVEWLLRA-NH2) came in with an EC50 in test [1] of 4.6 nM. Also, in test [1] (primary adipocyte cultures), the “Lipolysis potency relative to OXM” value is 40 times and the “Lipolysis potency relative to glucagon” value is recorded as “equipotent with glucagon”. The “Effect on food intake during the first hour” value with C57BI/6 mice is “significantly (P<0.05) decreased food intake”. The “Improvement of glucose tolerance” value in the test on db/db mice (15 min before oral glucose 1 g/kg, AUC0-240 min) is recorded as 77.1%. Moreover, the “Effect on oral glucose tolerance” value with db/db mice (diabetic db/db mice, result in words) was “significantly (P<0.01) improved glucose tolerance”. In test [2], the “Effect on HDL/LDL ratios” value is reported as “significant compared to vehicle; also recorded: significant effect” and the “Effect on blood concentration of LDL cholesterol” value was “significant compared to vehicle; also recorded: significant effect”. Besides, in test [3] (500 nmol/kg b.i.d. s.c., 28 days, high fat diet), the “Effect on body weight gain” value is on record as “decreased body weight gain to a level similar to that observed with chow feeding”. Besides, in test [3] (4 weeks treatment of DIO mice), the “Effect on fat deposition” value is “significantly decreased fat deposition”.
As to `CSCC[C@H](NC(=O)[C@H](CC(C)C)NC(=O)[C@H](Cc1c[nH]c2ccccc12)NC(=O)[C@H](CCC(N)=O)NC(=O)[C@@H](NC(=O)[C@H](Cc1ccccc1)NC(=O)[C@H](CC(=O)O)NC(=O)[C@H](CCC(N)=O)NC(=O)[C@H](C)NC(=O)[C@H](C)NC(=O)[C@H](CCCCN)NC(=O)[C@H](CO)NC(=O)[C@H](CC(=O)O)NC(=O)[C@H](CC(C)C)NC(=O)[C@H](Cc1ccc(O)cc1)NC(=O)[C@H](CCCCN)NC(=O)[C@H](CO)NC(=O)[C@H](Cc1ccc(O)cc1)NC(=O)[C@H](CC(=O)O)NC(=O)[C@H](CO)NC(=O)[C@@H](NC(=O)[C@H](Cc1ccccc1)NC(=O)[C@@H](NC(=O)CNC(=O)[C@H](CCC(N)=O)NC(=O)[C@H](CO)NC(=O)[C@@H](N)Cc1c[nH]cn1)[C@@H](C)O)[C@@H](C)O)C(C)C)C(=O)N[C@@H](CC(N)=O)C(=O)N[C@H](C(N)=O)[C@@H](C)O` [ZP2667] (H-HSQGTFTSDYSKYLDSKAAQDFVQWLMNT-NH2), in test [1], the EC50 worked out at 0.75 nM. Moreover, in test [1] (primary adipocyte cultures), the “Lipolysis potency relative to OXM” value was 240 times and the “Lipolysis potency relative to glucagon” value is given as 8 times.
As to Exendin-4 [reference compound], the Effect on lipolysis result in test [1] (primary adipocyte cultures, result in words) was “no effect”. Moreover, the “Stimulation of lipolysis EC50 (nM)” value in test [1] (primary rat adipocyte cultures, 60 min at 37° C.) was “No effect”. Further, the GLP-1R agonism entry on human GLP-1-R (result in words) was “very potent GLP-1R agonist”.
In the case of `CC(C)C[C@H](NC(=O)[C@H](CCCCN)NC(=O)[C@H](CC(C)C)NC(=O)[C@H](Cc1c[nH]c2ccccc12)NC(=O)[C@H](CCCNC(=N)N)NC(=O)[C@@H](NC(=O)[C@H](Cc1ccccc1)NC(=O)[C@H](CC(=O)O)NC(=O)[C@H](CCCNC(=N)N)NC(=O)[C@H](C)NC(=O)[C@H](C)NC(=O)[C@H](CCCCN)NC(=O)[C@H](CO)NC(=O)[C@H](CC(=O)O)NC(=O)[C@H](CC(C)C)NC(=O)[C@H](Cc1ccc(O)cc1)NC(=O)[C@H](CCCCN)NC(=O)[C@H](CO)NC(=O)[C@H](Cc1ccc(O)cc1)NC(=O)[C@H](CC(=O)O)NC(=O)[C@H](CO)NC(=O)[C@@H](NC(=O)[C@H](Cc1ccccc1)NC(=O)[C@@H](NC(=O)CNC(=O)[C@H](CCC(N)=O)NC(=O)[C@H](CO)NC(=O)[C@@H](N)Cc1c[nH]cn1)[C@@H](C)O)[C@@H](C)O)C(C)C)C(=O)N[C@@H](C)C(N)=O` [ZP2668] (H-HSQGTFTSDYSKYLDSKAARDFVRWLKLA-NH2), the EC50 in test [1] turned out to be 101 nM; at human GLP-1-R (HEK293 cells expressing human GLP-1-R, cAMP, 15 min at 37° C., read-out: GLP-1R EC50) it was 0.08 nM. For the same compound, the “Lipolysis potency relative to OXM” value in test [1] (primary adipocyte cultures) was “in the same order of magnitude as OXM”.
Take `CC(C)C[C@H](NC(=O)[C@H](CC(C)C)NC(=O)[C@H](Cc1c[nH]c2ccccc12)NC(=O)[C@H](CCC(N)=O)NC(=O)[C@@H](NC(=O)[C@H](Cc1ccccc1)NC(=O)[C@H](CC(=O)O)NC(=O)[C@H](Cc1c[nH]cn1)NC(=O)[C@H](C)NC(=O)[C@H](C)NC(=O)[C@H](CCCCN)NC(=O)[C@H](CO)NC(=O)[C@H](CC(=O)O)NC(=O)[C@H](CC(C)C)NC(=O)[C@H](Cc1ccc(O)cc1)NC(=O)[C@H](CCCCN)NC(=O)[C@H](CO)NC(=O)[C@H](Cc1ccc(O)cc1)NC(=O)[C@H](CC(=O)O)NC(=O)[C@H](CO)NC(=O)[C@@H](NC(=O)[C@H](Cc1ccccc1)NC(=O)[C@@H](NC(=O)CNC(=O)[C@H](CCC(N)=O)NC(=O)[C@H](CO)NC(=O)[C@@H](N)Cc1c[nH]cn1)[C@@H](C)O)[C@@H](C)O)C(C)C)C(=O)N[C@@H](CCCNC(=N)N)C(=O)N[C@@H](C)C(N)=O` [Compound L006-0172] (H-HSQGTFTSDYSKYLDSKAAHDFVQWLLRA-NH2): the concentration for a half-maximal effect (EC50) on human GLP-1-R (read-out: GLP-1R EC50 (nM), crude peptides marked *) came out at 21 nM.
For “PYY(3-36): internal positive control in the food intake test, anorectic effect [reference compound]”, the “Effect on food intake during the first hour” value in the test on C57BI/6 mice is reported as “showed an anorectic effect”.

Source of the values: patent US8685919B2 (Zealand Pharma A/S, priority 2008, dated 2014).
